Values joined by “and” are separate entries in the source; they are usually repeats but may differ in a detail not shown here. Identical values can stand only once. Active and inactive are the calls of the source.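 How the source made its calls: active means compounds giving half or more protection of infected cells from virus-caused growth loss, again on retest; inactive means the rest.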
System: CEM cells HIV-1 protection, formazan growth assay
Assay: NCI AIDS Antiviral Assay
Settings: for IC50: measured here: growth of uninfected CEM cells
In short: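 Human CEM cells, uninfected and HIV-1-infected, exposed to five drug concentrations; growth measured by soluble formazan assay and scored as percent protection from infection, with protecting compounds retested.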

| SMILES | EC50 | IC50 | outcome |
| --- | --- | --- | --- |
| CCCC1(NC(=O)C(F)(F)F)CC(OC)OC2COC(c3ccccc3)OC21 (stereo not given) | > 200 µM | > 200 µM | – |
| CCOC(=O)C1=CC(C)(C(=O)OCC)Nc2c(nc(OC)[nH]c2=O)N1 (stereo not given) | > 200 µM | > 200 µM | – |
| O=C(O)c1sc(=S)sc1C(=O)O | – | – | inactive |
| COc1cc(/C=C/C(=O)CC(=O)/C=C/c2ccc(O)cc2)ccc1O | > 200 µM | 11.7 µM | – |
| COC1(OC)N=C(N)C2(C#N)C(C)=C3NCN(C)N=C3C12C#N (stereo not given) | > 200 µM | > 200 µM | – |
| Cc1ccc(/C([O-])=C(\C(=S)Nc2cccc(C(F)(F)F)c2)[n+]2ccccc2)cc1 | > 200 µM | 89.1 µM | – |
| NNc1ccc2cc(S(=O)(=O)O)cc(S(=O)(=O)O)c2c1 | > 741 µM | 331 µM | – |
| O=C1c2cccnc2S(=O)(=O)N1c1ccc([N+](=O)[O-])cc1 | > 200 µM | 23.4 µM | – |
| CC(C)(O)[C@@H]1CC[C@@]2(C)CCCC(O)C2(O)C1 (stereo not given in full) | – | – | inactive |
| N#CN1C2CCC1CC(=O)C2 | 67.6 µM | 129 µM | – |
| O=c1c(-c2ccccc2)nnc2n(Cc3ccccc3)c3ccccc3n12 | > 200 µM | 112 µM | – |
| C1CN(c2nnc(N3CCC3)nn2)C1 | – | – | inactive |
| O=C1/C(=C\c2ccccc2)C2/C(=C\c3ccccc3)C(=O)/C(=C\c3ccccc3)C2/C1=C\c1ccccc1 (stereo not given) | – | – | inactive |
| CC1=NN2C(c3ccc(Cl)cc3)=CSC2=NC(C)(C)C1 | > 162 µM | 93.3 µM | – |
| CS(=O)(=O)c1ccc(SSc2ccc(S(C)(=O)=O)cc2[N+](=O)[O-])c([N+](=O)[O-])c1 | – | – | inactive |
| O=c1[nH]c(N/N=C\C(O)C(O)C(O)CO)nc2ccccc12 (stereo not given) | > 200 µM | > 200 µM and 97.7 µM | – |
| Cc1cn(C(CO)OC(CO)CP(=O)(O)O)c(=O)[nH]c1=O (stereo not given) | > 200 µM | > 200 µM | – |
| On1ccc(=S)c2ccccc21 | > 200 µM | 36.3 µM | – |
| NNC(=S)NNC(N)=O | 58.9 µM | > 200 µM | – |
| COC1/C=C/OC2(C)Oc3c(C)c(O)c4c(O)c(c(/C=N/N5CCCN(C)CC5)c(O)c4c3C2=O)NC(=O)/C(C)=C\C=C\C(C)C(O)C(C)C(O)C(C)C(OC(C)=O)C1C (stereo not given) | > 200 µM | 89.1 µM | – |
| C/C(=N/NC(N)=S)C(CN1CCOCC1)C(C1=C(O)c2ccccc2OC1)c1ccccc1 (stereo not given) | > 37.2 µM | > 37.2 µM | – |
| CC1C=CC(O)[C@]2(CO)CC3(CCC12)OCCO3 (stereo not given in full) | – | – | inactive |
| CC(=O)Nc1ccc(/C=N\N2C(=O)c3ccccc3C2=O)cc1 | > 61.7 µM | > 61.7 µM | – |
| COc1ccc(/C(Br)=C2\OC(=O)c3ccccc32)cc1 | > 200 µM | > 200 µM | – |

| SMILES | EC50 | IC50 | outcome |
| --- | --- | --- | --- |
| Cc1ccc(NC2=NCCS2)c(C)c1 | > 200 µM | > 200 µM | – |
| O=C(/C(=C/c1ccc(O)cc1)c1ccccc1)c1ccccc1 | > 120 µM | 36.3 µM | – |
| C/C(=N\NC(=S)N(C)C)c1ncc[nH]1 | > 234 µM | 4.27 µM | – |
| CCN(CC)CCC(=O)/C=C/c1ccc(Cl)c(Cl)c1 | > 200 µM | 5.13 µM | – |
| N#CC1(C#N)C(c2ccccc2)C=CC12OCCCO2 (stereo not given) | – | – | inactive |
| CCCCCCCCCCCCCCCCCCOCC(O)CO (stereo not given) | > 3.02 µM | > 3.02 µM | – |
| CC(C(N)=O)N(C)C(=O)c1cc2ccccc2[n+](Cc2ccccc2)c1 (stereo not given) | – | – | inactive |
| CC1CSS(=O)O1 (stereo not given) | > 200 µM | > 200 µM | – |
| CCOP(C)(=O)/C(Cc1ccc(OC)c(OC)c1)=N\O (stereo not given) | > 200 µM | > 200 µM | – |
| COc1cc(CC2c3cc(OC)c(OC)cc3CC[N+]2(C)C)c(Oc2cc(CC3c4cc(OC)c(OC)cc4CC[N+]3(C)C)ccc2OC)cc1OC (stereo not given) | – | – | inactive |
| COc1ccc2[nH]c(=O)c(C(C)=O)c(O)c2c1 | > 200 µM | > 200 µM | – |
| O=C1OC2OC3OC(=O)C4C3CC2C14 (stereo not given) | > 257 µM | > 257 µM | – |
| COc1ccc(CCN2C(=O)c3cccc4c(Br)ccc(c34)C2=O)cc1 | > 200 µM | 105 µM | – |
| Cc1ccc(C)c(COCCOCn2ccc(N)nc2=O)c1 | > 200 µM | > 200 µM | – |
| C[C@]12CCC3c4ccc(OS(=O)(=O)O)cc4CC[C@H]3C1CC[C@@H]2O (stereo not given in full) | – | – | inactive |
| CC(=O)Nc1cc(Cl)cc(Cl)c1O | > 200 µM | 53.7 µM | – |
| O=C1COC(c2ccccc2O)=NN1CCCl | > 141 µM | > 141 µM | – |
| CCOP(=O)(OCC)/C(C#N)=C\c1ccccc1 | > 355 µM | > 355 µM | – |
| COc1ccc(NS(=O)c2ccc(OC)cc2)cc1 (stereo not given) | > 200 µM | 15.8 µM | – |
| Brc1ccc(-c2ccc(-c3ccc(Br)s3)s2)s1 | > 200 µM | > 200 µM | – |
| C=CCC1(C(=O)OC)CCC/C(=N\O)C1 (stereo not given) | > 64.6 µM | > 64.6 µM | – |
| Cn1c(O)c(C=Nc2ccccc2Cl)c(=O)n(C)c1=O | – | – | inactive |
| O=C(CC(O)(C(F)(F)F)C(F)(F)F)C(CCCl)C(O)(C(F)(F)F)C(F)(F)F (stereo not given) | > 200 µM | 33.1 µM | – |
| O=C(OCCN=c1c2ccccc2ccc2ccccc12)c1cc([N+](=O)[O-])cc([N+](=O)[O-])c1 | > 200 µM | 158 µM | – |

| SMILES | EC50 | IC50 | outcome |
| --- | --- | --- | --- |
| COC(=O)C(C)(C)NC(=O)C(Cc1ccccc1)Nc1ncnc2c1ncn2-c1ccc(OC)cc1 (stereo not given) | – | 56.2 µM | inactive |
| c1ccc2c(c1)c1c(n2CCOCCN2CCCC2)CCCC1 | > 200 µM | 9.55 µM | – |
| COc1ccc(CN2CC(=O)N3Cc4ccccc4CN3C(=O)C2)cc1 | > 200 µM | 166 µM | – |
| Nc1ccnc2c1ncn2[C@H]1C[C@H](O)[C@@H](CO)O1 | > 200 µM | > 200 µM | – |
| Cn1c(=O)c2nsnc2n(C)c1=O | > 661 µM | > 661 µM | – |
| NC(=O)[N+](=CC(=S)Nc1ccccc1Cl)C(N)=O | > 200 µM | > 200 µM | – |
| NC(=S)NN=C1Cc2ccccc2C1 | > 200 µM | 145 µM | – |
| O/N=C1/C(=C/c2ccc(OCc3ccccc3)cc2)CCCC1C(NO)c1ccc(OCc2ccccc2)cc1 (stereo not given) | > 7.08 µM | > 7.08 µM | – |
| Cc1cc2c(c3nocc13)C(=O)c1ccccc1C2=O | – | – | inactive |
| O=[N+]([O-])c1ccccc1S(=O)NCc1c(Cl)cccc1Cl (stereo not given) | > 200 µM | > 200 µM | – |
| N#C/C(=C1/c2cc([N+](=O)[O-])ccc2-c2c1cc([N+](=O)[O-])cc2[N+](=O)[O-])N1CCCCC1 | > 200 µM | > 200 µM | – |
| CN(C)c1ccc(/C=C(\C#N)c2c(Cl)cccc2Cl)cc1 | > 200 µM | 4.57 µM | – |
| O=C(Nc1nc(C23CC4CC(CC(C4)C2)C3)cs1)c1cc2cc([N+](=O)[O-])ccc2oc1=O | > 200 µM | 178 µM | – |
| Nc1ncn(C2OC(COP(=O)(O)O)C(O)C2O)c(=O)n1 (stereo not given) | > 200 µM | 8.51 µM | – |
| NC(=O)c1cccn1Cc1ccccc1SSc1ccccc1Cn1cccc1C(N)=O | > 15.8 µM | 7.08 µM | – |
| CCCCCCCOc1ccc(/C=C\c2cc[n+](CCCCCCCC[n+]3ccc(/C=C\c4ccc(OCCCCCCC)cc4)cc3)cc2)cc1 | > 6.46 µM | > 6.46 µM | – |
| Clc1ccccc1C(c1ccccc1)(c1ccccc1)n1ccnc1 | > 200 µM | 21.4 µM | – |
| CC1C2CC(C(S(=O)(=O)O)C2=O)C1(C)C (stereo not given) | > 1000 µM | > 1000 µM | – |
| CCOC(=O)c1nc(SC)sc1NC(=O)c1ccccc1[N+](=O)[O-] | 195 µM | > 200 µM | – |
| O=C(O)CSCC(=O)Nc1ccc2cccc3c2c1CC3 | – | – | inactive |
| Cc1ccccc1[P+](Cc1ccccc1)(c1ccccc1)c1ccccc1 | > 200 µM | 1.26 µM | – |
| COC(=O)c1cc(Cc2cc(C)c(OC)c(C(=O)OC)c2)cc(C)c1OC | > 200 µM | 14.5 µM | – |
| O=C1OC(c2ccccc2)=N/C1=C/C=C/c1ccco1 | – | – | inactive |
| O=c1[nH]c(CO)nc(O)c1Cl | > 200 µM | > 200 µM | – |

| SMILES | EC50 | IC50 | outcome |
| --- | --- | --- | --- |
| COc1ccc(C2=NNc3n[nH]c(=S)n3N2)cc1OC | > 64.6 µM | > 64.6 µM | – |
| Nc1ccc2[se]nc3c2c1C(=O)c1ccccc1-3 | > 6.76 µM | > 6.76 µM | – |
| O=C(CC1Sc2ccccc2NC1=O)Nc1cccc(Cl)c1 (stereo not given) | > 56.2 µM | > 56.2 µM | – |
| CCOC(=O)Cc1ccc(Nc2nc3cc(C(F)(F)F)ccc3nc2C(=O)OCC)cc1 | > 100 µM | > 100 µM | – |
| Cc1ncc(CO)c(CO)c1S | > 200 µM | > 200 µM | – |
| O=P1(Nc2ccc(/C=C3\C=Cc4ccccc43)cc2)NCCCO1 (stereo not given) | > 39.8 µM | 22.9 µM | – |
| CN(C1=NCCO1)c1cccc2ccccc12 | > 200 µM | 129 µM | – |
| COC(=O)C12C3C4C1C1C2C3C41C(=O)O (stereo not given) | > 1200 µM | > 1200 µM | – |
| C=CCSS(=O)CC=C (stereo not given) | – | – | inactive |
| N#CC1=C(N2CCOCC2)CCC1 | > 200 µM | > 200 µM | – |
| COc1ccc(C2=C(N)c3cc(OC)ccc3C2=O)cc1 | > 200 µM | > 200 µM | – |
| Cc1c(C)n(-c2ccccc2)c2nc(S(C)=O)nc(S(C)=O)c12 (stereo not given) | > 20 µM | 1.35 µM | – |
| COC(=O)c1ccc(NC(=O)O/N=C(\Cl)C(C)C)cc1 | > 20 µM | 3.63 µM | – |
| O=C(/C=C/NC(=O)OCc1ccccc1)OCc1ccccc1 | > 200 µM | > 200 µM | – |
| C(CCC[Te][Te]CCCCCCOC1CCCCO1)CCOC1CCCCO1 (stereo not given) | – | – | inactive |
| S=C1SCCS1 | > 200 µM | > 200 µM | – |
| CCc1c(Cc2ccccc2)n(COCCCO)c(=O)[nH]c1=O | 7.08 µM | 10 µM | – |
| CC(C)=CCOC(=O)C(C)=[N+]=[N-] | > 200 µM | 170 µM | – |
| COc1ccc(C2CC(c3ccccc3)=Nc3ccccc3S2)cc1OC (stereo not given) | > 39.8 µM | 8.51 µM | – |
| O=C1Oc2ccccc2C(=O)/C1=C/N1C(=O)CNC1=S | > 200 µM | > 200 µM | – |
| Cc1ccc(OCC2OC(n3cnc4c(N(C)C)nc(Br)nc43)CC2Oc2ccc(C)cc2)cc1 (stereo not given) | > 200 µM | 31.6 µM | – |
| CCO/C=C(/C#N)C(=O)OC | – | – | inactive |
| C=CCOC(=O)/C(=C\c1ccc(OC)c(OC)c1)c1ccc(OC)c(OC)c1 | > 200 µM | > 200 µM | – |
| CC(=O)ON1C(=O)c2cccc3cccc(c23)C1=O | > 200 µM | 18.6 µM | – |
